From ChEMBL document CHEMBL5608177, “Antitumor activity and transcriptome sequencing (RNA-seq) analyses of hepatocellular carcinoma cells in response to exposure triterpene-nucleoside conjugates” (Eur J Med Chem, 2024)
Activity calls are given as the source filed them. The calls are words filed in the database; no cut-off is given here.

Legend:
[1] = system: SMMC-7721; assay: Induction of apoptosis in human SMMC-7721 cells assessed as necrotic cells at 20 uM incubated for 24 hrs by Annexin V-FITC and propidium iodide staining based flow cytometric analysis (reference value: 0.61 %); assay type: functional
[2] = system: SMMC-7721; assay: Induction of autophagy in human SMMC-7721 cells assessed as formation of autolysosomes at 10 uM incubated for 24 hrs by TEM analysis; assay type: functional, cell-based
[3] = system: SMMC-7721; assay: Induction of apoptosis in human SMMC-7721 cells assessed as viable cells at 5 uM incubated for 24 hrs by Annexin V-FITC and propidium iodide staining based flow cytometric analysis (reference value: 99 %); assay type: functional; details: read-out: Activity
[4] = system: SMMC-7721; assay: Induction of apoptosis in human SMMC-7721 cells assessed as necrotic cells at 5 uM incubated for 24 hrs by Annexin V-FITC and propidium iodide staining based flow cytometric analysis (reference value: 0.61 %); assay type: functional
[5] = system: MCF7; assay: Antiproliferative activity against human MCF7 cells assessed as inhibition of cell growth incubated for 48 hrs by CCK-8 reagent based spectrophotometric analysis; assay type: functional; details: MCF7, 48 h
[6] = system: SMMC-7721; assay: Induction of apoptosis in human SMMC-7721 cells assessed as viable cells at 20 uM incubated for 24 hrs by Annexin V-FITC and propidium iodide staining based flow cytometric analysis (reference value: 99 %); assay type: functional; details: read-out: Activity
[7] = system: SMMC-7721; assay: Induction of apoptosis in human SMMC-7721 cells assessed as necrotic cells at 15 uM incubated for 24 hrs in presence of zVAD by Annexin V-FITC and propidium iodide staining based flow cytometric analysis (reference value: 0.65 %); assay type: functional
[8] = system: SMMC-7721; assay: Induction of apoptosis in human SMMC-7721 cells assessed as necrotic cells at 15 uM incubated for 24 hrs by Annexin V-FITC and propidium iodide staining based flow cytometric analysis (reference value: 0.65 %); assay type: functional
[9] = system: SMMC-7721; assay: Induction of apoptosis in human SMMC-7721 cells assessed as early apoptotic cells at 10 uM incubated for 24 hrs by Annexin V-FITC and propidium iodide staining based flow cytometric analysis (reference value: 0.28 %); assay type: functional
[10] = system: SMMC-7721; assay: Induction of apoptosis in human SMMC-7721 cells assessed as viable cells at 10 uM incubated for 24 hrs by Annexin V-FITC and propidium iodide staining based flow cytometric analysis (reference value: 99 %); assay type: functional; details: read-out: Activity
[11] = system: SMMC-7721; assay: Induction of apoptosis in human SMMC-7721 cells assessed as late apoptotic cells at 10 uM incubated for 24 hrs by Annexin V-FITC and propidium iodide staining based flow cytometric analysis (reference value: 0.14 %); assay type: functional
[12] = system: SMMC-7721; assay: Induction of apoptosis in human SMMC-7721 cells assessed as late apoptotic cells at 5 uM incubated for 24 hrs by Annexin V-FITC and propidium iodide staining based flow cytometric analysis (reference value: 0.14 %); assay type: functional
[13] = system: SMMC-7721; assay: Induction of apoptosis in human SMMC-7721 cells assessed as early apoptotic cells at 15 uM incubated for 24 hrs by Annexin V-FITC and propidium iodide staining based flow cytometric analysis (reference value: 0.07 %); assay type: functional
[14] = system: KYSE-150 cell line; assay: Antiproliferative activity against human KYSE-150 cell line assessed as inhibition of cell growth incubated for 48 hrs by CCK-8 reagent based spectrophotometric analysis; assay type: functional; details: KYSE-150, 48 h
[15] = system: SMMC-7721; assay: Induction of apoptosis in human SMMC-7721 cells assessed as necrotic cells at 10 uM incubated for 24 hrs by Annexin V-FITC and propidium iodide staining based flow cytometric analysis (reference value: 0.61 %); assay type: functional
[16] = system: A549; assay: Antiproliferative activity against human A549 cells assessed as inhibition of cell growth incubated for 48 hrs by CCK-8 reagent based spectrophotometric analysis; assay type: functional; details: A549, 48 h
[17] = system: SMMC-7721; assay: Induction of apoptosis in human SMMC-7721 cells assessed as viable cells at 15 uM incubated for 24 hrs in presence of 3-MA by Annexin V-FITC and propidium iodide staining based flow cytometric analysis (reference value: 99.2 %); assay type: functional; details: read-out: Activity
[18] = system: SMMC-7721; assay: Induction of apoptosis in human SMMC-7721 cells assessed as late apoptotic cells at 15 uM incubated for 24 hrs in presence of Nec1 by Annexin V-FITC and propidium iodide staining based flow cytometric analysis (reference value: 0.09 %); assay type: functional
[19] = system: SMMC-7721; assay: Induction of autophagy in human SMMC-7721 cells assessed as appearance of sparse matrix at 10 uM incubated for 24 hrs by TEM analysis; assay type: functional, cell-based
[20] = system: SMMC-7721; assay: Induction of apoptosis in human SMMC-7721 cells assessed as early apoptotic cells at 15 uM incubated for 24 hrs in presence of zVAD by Annexin V-FITC and propidium iodide staining based flow cytometric analysis (reference value: 0.07 %); assay type: functional
[21] = system: SMMC-7721; assay: Induction of apoptosis in human SMMC-7721 cells assessed as late apoptotic cells at 15 uM incubated for 24 hrs in presence of zVAD by Annexin V-FITC and propidium iodide staining based flow cytometric analysis (reference value: 0.09 %); assay type: functional
[22] = system: SMMC-7721; assay: Induction of apoptosis in human SMMC-7721 cells assessed as early apoptotic cells at 5 uM incubated for 24 hrs by Annexin V-FITC and propidium iodide staining based flow cytometric analysis (reference value: 0.28 %); assay type: functional
[23] = system: SMMC-7721; assay: Induction of apoptosis in human SMMC-7721 cells assessed as late apoptotic cells at 15 uM incubated for 24 hrs in presence of 3-MA by Annexin V-FITC and propidium iodide staining based flow cytometric analysis (reference value: 0.09 %); assay type: functional
[24] = system: SMMC-7721; assay: Induction of autophagy in human SMMC-7721 cells assessed as formation of autophagosome at 10 uM incubated for 24 hrs by TEM analysis; assay type: functional, cell-based
[25] = system: SMMC-7721; assay: Induction of apoptosis in human SMMC-7721 cells assessed as viable cells at 15 uM incubated for 24 hrs in presence of zVAD by Annexin V-FITC and propidium iodide staining based flow cytometric analysis (reference value: 99.2 %); assay type: functional; details: read-out: Activity
[26] = system: SMMC-7721; assay: Induction of apoptosis in human SMMC-7721 cells assessed as early apoptotic cells at 15 uM incubated for 24 hrs in presence of 3-MA by Annexin V-FITC and propidium iodide staining based flow cytometric analysis (reference value: 0.07 %); assay type: functional
[27] = system: SMMC-7721; assay: Antiproliferative activity against human SMMC-7721 cells assessed as inhibition of cell growth incubated for 48 hrs by CCK-8 reagent based spectrophotometric analysis; assay type: functional; details: SMMC-7721, 48 h
[28] = system: PC-3; assay: Antiproliferative activity against human PC-3 cells assessed as inhibition of cell growth incubated for 48 hrs by CCK-8 reagent based spectrophotometric analysis; assay type: functional; details: PC-3, 48 h
[29] = system: SMMC-7721; assay: Induction of apoptosis in human SMMC-7721 cells assessed as late apoptotic cells at 20 uM incubated for 24 hrs by Annexin V-FITC and propidium iodide staining based flow cytometric analysis (reference value: 0.14 %); assay type: functional
[30] = system: SMMC-7721; assay: Induction of apoptosis in human SMMC-7721 cells assessed as early apoptotic cells at 15 uM incubated for 24 hrs in presence of Nec1 by Annexin V-FITC and propidium iodide staining based flow cytometric analysis (reference value: 0.07 %); assay type: functional
[31] = system: SMMC-7721; assay: Induction of apoptosis in human SMMC-7721 cells assessed as late apoptotic cells at 15 uM incubated for 24 hrs by Annexin V-FITC and propidium iodide staining based flow cytometric analysis (reference value: 0.09 %); assay type: functional

Compound: C=C(C)[C@@H]1CC[C@]2(C(=O)OC)CC[C@]3(C)[C@H](CC[C@@H]4[C@@]5(C)C[C@@H](Cc6cn([C@H]7C[C@H](n8cc(C)c(O)nc8=O)O[C@@H]7CO)nn6)C(=O)C(C)(C)[C@@H]5CC[C@]43C)[C@@H]12
- Activity [1]: 23%
- Activity [2]: Active
- viability at 5 µM [3]: 98.4%
- Activity [4]: 0.56%
- IC50 [5]: 9.78 µM
- viability at 20 µM [6]: 58%
- Activity [7]: 9.33%
- Activity [8]: 16.6%
- Activity [9]: 0.48%
- viability at 10 µM [10]: 91.7%
- Activity [11]: 6.31%
- Activity [12]: 0.77%
- Activity [13]: 0.04%
- IC50 [14]: 5.68 µM
- Activity [15]: 1.48%
- IC50 [16]: 11.9 µM
- viability at 15 µM [17]: 91.6%
- Activity [18]: 10.8%
- Activity [19]: Active
- Activity [20]: 0.04%
- Activity [21]: 2.77%
- Activity [22]: 0.24%
- Activity [23]: 6.4%
- Activity [24]: Active
- viability at 15 µM [25]: 87.9%
- Activity [26]: 0.23%
- IC50 [27]: 5.02 µM
- IC50 [28]: 10.1 µM
- Activity [29]: 18.9%
- Activity [30]: 0.19%
- Activity [31]: 15.2%

Compound: C=C(C)[C@@H]1CC[C@]2(C(=O)OC)CC[C@]3(C)[C@H](CC[C@@H]4[C@@]5(C)C[C@@H](Cc6cn([C@]7(CO)O[C@@H](n8ccc(O)nc8=O)[C@@H](F)[C@@H]7O)nn6)C(=O)C(C)(C)[C@@H]5CC[C@]43C)[C@@H]12
- Activity [1]: 19.8%
- Activity [2]: Active
- viability at 5 µM [3]: 99%
- Activity [4]: 0.69%
- IC50 [5]: 18.6 µM
- viability at 20 µM [6]: 62.3%
- Activity [7]: 9.3%
- Activity [8]: 15.7%
- Activity [9]: 0.35%
- viability at 10 µM [10]: 96.2%
- Activity [11]: 0.78%
- Activity [12]: 0.16%
- Activity [13]: 0.06%
- IC50 [14]: 10.6 µM
- Activity [15]: 2.69%
- IC50 [16]: 17.7 µM
- viability at 15 µM [17]: 86.2%
- Activity [18]: 9.13%
- Activity [19]: Active
- Activity [20]: 0.03%
- Activity [21]: 8.65%
- Activity [22]: 0.13%
- Activity [23]: 2.54%
- Activity [24]: Active
- viability at 15 µM [25]: 82%
- Activity [26]: 0.05%
- IC50 [27]: 7.73 µM
- IC50 [28]: 22.9 µM
- Activity [29]: 17.5%
- Activity [30]: 0.23%
- Activity [31]: 11.4%
